Legend:
[1] = molecular target: LGC-55 (Caenorhabditis elegans, UniProt G5EEC1); format: cell-based
[2] = molecular target: T1, LGC-40 (Caenorhabditis elegans, UniProt Q22741); format: cell-based; conditions: for estimated Hill coefficient, LGC-40: dose-response data fitted to the Hill equation
T1 sequence (Q22741 23-494): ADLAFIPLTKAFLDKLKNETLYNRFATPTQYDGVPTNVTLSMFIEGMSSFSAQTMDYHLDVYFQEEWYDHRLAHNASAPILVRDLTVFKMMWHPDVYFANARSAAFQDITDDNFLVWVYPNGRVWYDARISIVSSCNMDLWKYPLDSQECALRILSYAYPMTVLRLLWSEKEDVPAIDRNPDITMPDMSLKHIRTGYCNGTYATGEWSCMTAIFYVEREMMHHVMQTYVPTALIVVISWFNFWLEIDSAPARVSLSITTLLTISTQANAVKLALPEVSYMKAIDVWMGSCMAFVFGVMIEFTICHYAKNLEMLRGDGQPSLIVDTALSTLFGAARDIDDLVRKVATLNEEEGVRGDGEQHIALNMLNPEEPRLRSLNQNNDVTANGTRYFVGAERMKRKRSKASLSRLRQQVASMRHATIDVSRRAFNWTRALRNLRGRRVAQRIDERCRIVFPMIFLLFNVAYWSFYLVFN

[3] = molecular target: T2, LGC-53 (Caenorhabditis elegans, UniProt H2KYN9); assay: Inhibition of dopamine-evoked LGC-53 currents in Xenopus oocytes; format: cell-based
[4] = molecular target: T1, LGC-40; assay: Inhibition of choline-evoked LGC-40 currents in Xenopus oocytes; format: cell-based
[5] = molecular target: T2, LGC-53
[6] = molecular target: T2, LGC-53; assay: cell-based
[7] = dose-response data fitted to the Hill equation
[8] = panel: serotonin, dopamine, octopamine, tyramine, histamine

NCCc1ccc(O)cc1 [tyramine]
EC50 [1]: 6 µM | estimated Hill coefficient, LGC-55 [1, 7]: 1.8 | efficacy of activation of LGC-55 among the biogenic amines tested (in words) [1, 8]: highest efficacy

C[N+](C)(C)CCO [choline]
EC50 [2]: 3.4 µM | estimated Hill coefficient, LGC-40 [2]: 1.9

O=C(CCCN1CCC2(CC1)C(=O)NCN2c1ccccc1)c1ccc(F)cc1 [spiperone]
IC50 [3]: 38 µM

NCCc1c[nH]c2ccc(O)cc12 [serotonin]
EC50 [2]: 905 µM | estimated Hill coefficient, LGC-40 [2]: 2.7

CN1[C@@H]2CC[C@H]1C[C@@H](OC(=O)C(CO)c1ccccc1)C2 (stereo partly shown) [atropine]
sensitivity of LGC-40 currents to antagonist (in words) ([4]; currents evoked by 2 μM choline): relatively insensitive

C[N+]1(C)CCOC(O)(c2ccc(-c3ccc(C4(O)C[N+](C)(C)CCO4)cc3)cc2)C1 (stereo not shown) [Hemicholinium-3, hemicholinium-3]
IC50 [4]: 2 µM

CC(=O)OCC[N+](C)(C)C [acetylcholine]
EC50 [2]: 87 µM | estimated Hill coefficient, LGC-40 [2]: 1.5

NCCc1ccc(O)c(O)c1 [dopamine]
estimated Hill coefficient, LGC-53 [5, 7]: 1.9 | efficacy of activation of LGC-53 among the biogenic amines tested (in words) [5, 8]: highest efficacy | EC50 [6]: 4.4 µM

COc1cc2c3cc1Oc1cc(ccc1O)C[C@@H]1c4c(cc(OC)c(O)c4Oc4ccc(cc4)C[C@@H]3N(C)CC2)CC[N+]1(C)C [d-tubocurarine]
IC50 [4]: 8.3 µM

Reference: publication PMC2963310 (Science (New York, N.Y.), 2009)
